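These data come from cells grown in 96-well plates and exposed to compound for 48 hours at five concentrations. GI50 = concentration required for 50% inhibition of growth. TGI is the concentration that stops growth completely.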
Assays:
Experiment in all cases: growth of human tumour cells (NCI), 48 h
SN12C renal = test system: SN12C renal
SR leukemia = test system: SR leukemia
SNB-19 CNS = test system: SNB-19 CNS
SF-268 CNS = test system: SF-268 CNS
TK-10 renal = test system: TK-10 renal
HOP-92 NSCLC = test system: HOP-92 NSCLC
A498 renal = test system: A498 renal
PC-3 prostate = test system: PC-3 prostate
DU-145 prostate = test system: DU-145 prostate
NCI/ADR-RES ovarian = test system: NCI/ADR-RES ovarian

In the case of `C1=Nc2ccccc2Cn2nncc21`, the TGI (SN12C renal) is reported as over 100 µM, the TGI (SR leukemia) is reported as over 100 µM and the TGI (SNB-19 CNS) is reported as over 100 µM. For the same molecule, the TGI (SF-268 CNS) was over 100 µM, the TGI (TK-10 renal) was over 100 µM and the TGI (HOP-92 NSCLC) was over 100 µM.
Molecule `OC(c1ccccc1)C1CC2C=CC1C2` (stereo not given) has a TGI (SN12C renal) of over 100 µM, a TGI (A498 renal) of over 100 µM and a TGI (SNB-19 CNS) of over 100 µM. The TGI (SF-268 CNS) was over 100 µM, the TGI (TK-10 renal) was over 100 µM and the TGI (HOP-92 NSCLC) was over 100 µM.
For `COc1ccc(N2C(=O)C(=O)N(C)C2=O)c2ccccc12`, the TGI (SN12C renal) was over 10 µM, the TGI (A498 renal) was over 10 µM and the TGI (SR leukemia) was over 10 µM. The TGI (SNB-19 CNS) was over 10 µM, the TGI (SF-268 CNS) was over 10 µM and the TGI (PC-3 prostate) was over 10 µM. It also gave a TGI (TK-10 renal) of over 10 µM, a TGI (DU-145 prostate) of over 10 µM and a TGI (NCI/ADR-RES ovarian) of over 10 µM.
With `COC1=CC(=O)c2c(c(COC(C)=O)cn2C)C1=O` the TGI (SN12C renal) was 0.325 µM, the TGI (A498 renal) was 0.586 µM and the TGI (SR leukemia) was 0.545 µM. The TGI (SNB-19 CNS) was 8.18 µM, the TGI (SF-268 CNS) was 0.808 µM and the TGI (PC-3 prostate) was 1.35 µM. It also gave a TGI (TK-10 renal) of 0.207 µM, a TGI (DU-145 prostate) of 0.247 µM and a TGI (HOP-92 NSCLC) of 0.822 µM. It also gave a TGI (NCI/ADR-RES ovarian) of 0.295 µM.
In the case of `CC1(CO)C(O)CCC2(C)C1C(O)CC1CC3CC12CCC3(O)CO` (stereo not given), the TGI (SN12C renal) is reported as over 225 µM, the TGI (A498 renal) is reported as over 225 µM and the TGI (SNB-19 CNS) is reported as over 225 µM. The TGI (SF-268 CNS) was over 225 µM, the TGI (HOP-92 NSCLC) was over 225 µM and the TGI (NCI/ADR-RES ovarian) was over 225 µM.
Molecule `Fc1ccc(Nc2ncc(-c3cc(F)c(Cl)cc3Cl)s2)cc1Cl` has a GI50 (SN12C renal) of 3.91 µM, a TGI (SN12C renal) of over 100 µM and a GI50 (A498 renal) of 11.2 µM. For the same molecule, the TGI (A498 renal) was 29.1 µM, the GI50 (SNB-19 CNS) was over 100 µM and the TGI (SNB-19 CNS) was over 100 µM. For the same molecule, the GI50 (SF-268 CNS) was 5.63 µM, the TGI (SF-268 CNS) was 20.3 µM and the GI50 (PC-3 prostate) was 14 µM. For the same molecule, the TGI (PC-3 prostate) was 27.7 µM, the GI50 (TK-10 renal) was 8.05 µM and the TGI (TK-10 renal) was 21.8 µM. It also gave a GI50 (DU-145 prostate) of 9.01 µM, a TGI (DU-145 prostate) of 30.8 µM and a GI50 (HOP-92 NSCLC) of 1.47 µM. The TGI (HOP-92 NSCLC) was 13.3 µM, the GI50 (NCI/ADR-RES ovarian) was 17.7 µM and the TGI (NCI/ADR-RES ovarian) was 32.5 µM.

Source: PubChem BioAssay (NCI)
